# Laboratory results as given in patent US10821118B2, “Oral transmucosal drug delivery system” (ABON PHARMACEUTICALS, LLC, priority 2012, dated 2020).
# Experiments:
# [1] = Heat of fusion of testosterone by DSC, molten / heat treated testosterone-agent samples; assay type: physicochemical; conditions: pure crystalline testosterone, at melting point of about 150° C.
# Method: The heat of fusion (ΔHf) can be measured via Differential Scanning calorimetry (DSC).
# Talc is an inert purified hydrated magnesium silicate with a melting point of 1500° C.
# [2] = Testosterone solubility in aqueous media (SSF) containing various CIAs; assay type: physicochemical; conditions: Simulated Saliva Fluid (SSF) containing CIA, thermodynamic from solid, Solubility of Testosterone in CIA Containing SSF
# Method: Then the sample was filtered through a 0.45 μm polyvinylidene fluoride (PVDF) and the filtrate was analyzed by HPLC.
# [3] = test system: Sex Hormone Binding Globulin (SHBG), albumin; conditions: cited from earlier work
# [4] = Solubility of crystalline drug in water; conditions: 37 °C
# [5] = Solubility of testosterone in molten CIA systems
# Method: In each solubility study, a molten solvent of single or combination CIA was prepared by heating and melting the CIA system using a water bath. […] The melt suspension was mixed for at least another 30 minutes while maintaining the CIA's molten state.
smiles,measurement,setting,value
C[C@]12CC[C@H]3[C@@H](CCC4=CC(=O)CC[C@@]43C)[C@@H]1CC[C@@H]2O [Testosterone],heat of fusion (ΔHf),[1],about 102.4 J/g
same,solubility,"[2]; aqueous with cosolvent or surfactant or cyclodextrin, SSF with 0.25% vitamin E-TPGS",60.8 µg/mL
same,solubility,"[2]; aqueous with cosolvent or surfactant or cyclodextrin, SSF with 0.5% vitamin E-TPGS",90.1 µg/mL
same,solubility,"[2]; aqueous with cosolvent or surfactant or cyclodextrin, SSF with 5% lauroyl polyoxyl-32 glycerides",358 µg/mL
same,solubility,"[2]; aqueous with cosolvent or surfactant or cyclodextrin, SSF with 5% oleic acid (oleic acid itself not soluble in SSF)",27 µg/mL
same,solubility,"[2]; aqueous with cosolvent or surfactant or cyclodextrin, SSF with 5% polyethylene glycol",32 µg/mL
same,solubility,"[2]; aqueous with cosolvent or surfactant or cyclodextrin, SSF with 5% vitamin E-TPGS",600 µg/mL
same,solubility,"[2]; aqueous with cosolvent or surfactant or cyclodextrin, SSF with 10% lauroyl polyoxyl-32 glycerides",694 µg/mL
same,solubility,"[2]; aqueous with cosolvent or surfactant or cyclodextrin, SSF with 10% oleic acid (oleic acid itself not soluble in SSF)",29 µg/mL
same,solubility,"[2]; aqueous with cosolvent or surfactant or cyclodextrin, SSF with 10% polyethylene glycol",45 µg/mL
same,solubility,"[2]; aqueous with cosolvent or surfactant or cyclodextrin, SSF with 10% vitamin E-TPGS",1210 µg/mL
same,solubility,"[2]; aqueous with cosolvent or surfactant or cyclodextrin, SSF with 20% lauroyl polyoxyl-32 glycerides",1350 µg/mL
same,solubility,"[2]; aqueous with cosolvent or surfactant or cyclodextrin, SSF with 20% oleic acid (oleic acid itself not soluble in SSF)",29 µg/mL
same,solubility,"[2]; aqueous with cosolvent or surfactant or cyclodextrin, SSF with 20% polyethylene glycol",69.4 µg/mL
same,solubility,"[2]; aqueous with cosolvent or surfactant or cyclodextrin, SSF with 20% vitamin E-TPGS",2250 µg/mL
same,solubility,"[2]; aqueous with cosolvent or surfactant or cyclodextrin, saturated CIA solution, 0.34 g/mL of lauroyl polyoxyl-32 glycerides in SSF",2370 µg/mL
same,solubility,"[2]; aqueous with cosolvent or surfactant or cyclodextrin, saturated CIA solution, 0.53 g of vitamin E TPGS in SSF",4190 µg/mL
same,solubility,"[2]; aqueous with cosolvent or surfactant or cyclodextrin, saturated CIA solution, 1.73 g/mL of polyethylene glycol in SSF",1600 µg/mL
same,solubility,"[2]; fassgf or other biorelevant, SSF with 0.25% polyethylene glycol",28.1 µg/mL
same,solubility,"[2]; fassgf or other biorelevant, SSF with 0.5% polyethylene glycol",27.8 µg/mL
same,protein bound in the blood circulation,[3]; blood circulation,96%
same,'free',[3]; in males,2-3%
same,bound to Sex Hormone Binding Globulin (SHBG),[3]; in males,about 44%
same,bound to albumin,[3]; in males,50%
same,solubility,[4],~27 µg/mL
same,"Solubility of Testosterone in CIA, Theoretical",[5]; Table 24: PEG 8000 50% / oleic acid 50%,117.1 mg/gm
same,"Solubility of Testosterone in CIA, Actual",[5]; Table 24: molten PEG 8000 50% / oleic acid 50%,136.2 mg/gm
same,"Solubility of Testosterone in CIA, Actual",[5]; Table 24: molten PEG 8000 50% / vitamin E-TPGS 50%,137.9 mg/gm
same,"Solubility of Testosterone in CIA, Actual",[5]; Table 24: molten oleic acid 50% / vitamin E-TPGS 50%,123.6 mg/gm
same,"Solubility of Testosterone in CIA, Actual",[5]; Table 24: molten oleic acid 100%,58.3 mg/gm
same,"Solubility of Testosterone in CIA, Actual","[5]; Table 24: molten oleic acid 100%, listed as testosterone",about 58.3 mg/gm
same,"Solubility of Testosterone in CIA, Actual",[5]; Table 24: molten polyethylene glycol 8000 100%,175.9 mg/gm
same,"Solubility of Testosterone in CIA, Actual","[5]; Table 24: molten polyethylene glycol 8000 100%, listed as testosterone",about 175.9 mg/gm
same,"Solubility of Testosterone in CIA, Actual",[5]; Table 24: molten vitamin E-TPGS 100%,78.9 mg/gm
same,"Solubility of Testosterone in CIA, Actual","[5]; Table 24: molten vitamin E-TPGS 100%, listed as testosterone",about 78.9 mg/gm
same,"Solubility of Testosterone in CIA, Theoretical",[5]; Table 25: PEG 8000 50% / lauroyl polyoxyl-32 glycerides 50%,130.0 mg/gm
same,"Solubility of Testosterone in CIA, Theoretical",[5]; Table 25: PEG 8000 50% / vitamin E TPGS 50%,130.6 mg/gm
same,"Solubility of Testosterone in CIA, Actual",[5]; Table 25: molten PEG 8000 50% / lauroyl polyoxyl-32 glycerides 50%,129.9 mg/gm
same,"Solubility of Testosterone in CIA, Actual",[5]; Table 25: molten PEG 8000 50% / vitamin E TPGS 50%,144.2 mg/gm
same,"Solubility of Testosterone in CIA, Actual",[5]; Table 25: molten lauroyl polyoxyl-32 glycerides 100%,81.6 mg/gm
same,"Solubility of Testosterone in CIA, Actual",[5]; Table 25: molten polyethylene glycol 8000 100%,178.4 mg/gm
same,"Solubility of Testosterone in CIA, Actual",[5]; Table 25: molten vitamin E TPGS 50% / lauroyl polyoxyl-32 glycerides 50%,114.6 mg/gm
same,"Solubility of Testosterone in CIA, Actual",[5]; Table 25: molten vitamin E TPGS 100%,82.7 mg/gm
same,"Solubility of Testosterone in CIA, Theoretical",[5]; Table 25: vitamin E TPGS 50% / lauroyl polyoxyl-32 glycerides 50%,82.2 mg/gm
same,"Solubility of Testosterone in CIA, Actual",[5]; […],136.6 mg/gm
